Assay results from US8927717B1, “Thiochromeno[2,3-c]quinolin-12-one derivatives, preparation method and application thereof” (National Defense Medical Center, priority 2014, dated 2015).

What was measured:
SF-539 = assay type: cell-based
A549/ATCC = assay type: cell-based
TOP I (Topoisomerase I) = biological target: T1, TOP I (Topoisomerase I) (Homo sapiens, UniProt P11387); test: TOP I mediated supercoiled DNA relaxation assay; assay type: biochemical; conditions: primary assay at 25 and/or 50 μM
T1 construct: purchased TopoGEN TG2005H
T1 sequence (P11387 1-765): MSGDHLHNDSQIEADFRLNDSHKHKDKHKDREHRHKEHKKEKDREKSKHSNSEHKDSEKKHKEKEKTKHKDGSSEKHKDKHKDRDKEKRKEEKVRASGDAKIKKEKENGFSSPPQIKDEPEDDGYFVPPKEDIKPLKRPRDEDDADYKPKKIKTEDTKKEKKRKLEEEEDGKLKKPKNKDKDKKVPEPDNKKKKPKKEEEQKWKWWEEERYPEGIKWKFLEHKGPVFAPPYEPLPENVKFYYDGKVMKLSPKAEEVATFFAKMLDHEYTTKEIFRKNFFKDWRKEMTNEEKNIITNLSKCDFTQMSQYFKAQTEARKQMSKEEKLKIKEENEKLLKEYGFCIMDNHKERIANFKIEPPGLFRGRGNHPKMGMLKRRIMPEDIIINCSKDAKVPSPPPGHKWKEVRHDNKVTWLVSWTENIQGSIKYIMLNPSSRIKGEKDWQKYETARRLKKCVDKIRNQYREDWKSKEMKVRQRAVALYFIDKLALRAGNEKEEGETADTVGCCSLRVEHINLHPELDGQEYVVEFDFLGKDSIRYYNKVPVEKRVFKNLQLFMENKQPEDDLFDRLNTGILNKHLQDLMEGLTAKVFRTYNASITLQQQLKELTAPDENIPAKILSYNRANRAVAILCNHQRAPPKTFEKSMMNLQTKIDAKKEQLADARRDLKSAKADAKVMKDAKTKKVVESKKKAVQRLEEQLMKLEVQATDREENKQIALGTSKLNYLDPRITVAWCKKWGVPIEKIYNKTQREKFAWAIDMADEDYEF
Protocol: According to the cell cytotoxicity, compounds 5, 7, 8, 16, 19, N2, N7, N8, N9, N14-N19, and N25 were also selected for primary TOP I and II activities assays at 25 and/or 50 μM (FIG. 2-4).

HCC-2998 = assay type: cell-based
CAKI-1 = assay type: cell-based
ACHN = assay type: cell-based
OVCAR-4 = assay type: cell-based
MDA-MB-486 = assay type: cell-based
MOLT-4 = assay type: cell-based
SF-268 = assay type: cell-based
UACC-257 = assay type: cell-based
786-0 = assay type: cell-based
UACC-62 = assay type: cell-based
MDA-MB-435 = assay type: cell-based
MALME-3M = assay type: cell-based; conditions: 10^−5 molar
UO-31 = assay type: cell-based
SK-MEL-2 = assay type: cell-based
NCI-H23 = assay type: cell-based; conditions: 10^−5 molar
IGROV1 = assay type: cell-based
HOP-92 = assay type: cell-based; conditions: 10^−5 molar
OVCAR-3 = assay type: cell-based
[1] = CNS cancer, 10^−5 molar, 48 hours, SRB
[2] = Homo sapiens, SF-539, five dose
[3] = Homo sapiens, A549/ATCC, five dose
[4] = Homo sapiens, HCC-2998, five dose
[5] = Renal cancer, 10^−5 molar, 48 hours, SRB
[6] = Ovarian cancer, 10^−5 molar, 48 hours, SRB
[7] = Melanoma, 10^−5 molar, 48 hours, SRB
[8] = Homo sapiens, SK-Mel-2, five dose
[9] = Non-small cell lung cancer, 48 hours, SRB

## CN(C)CCCNc1nc2ccccc2c2c(=O)c3cc(Cl)ccc3sc12 [Compound N17, 10-Chloro-6-((3-(dimethylamino)propyl)amino)-12H-thiochromeno[2,3-c]quinolin-12-one]
SF-539; SF-539, 10^−5 molar
  Growth percent: 87.85%
A549/ATCC; A549/ATCC, 10^−5 molar
  Growth percent: 81.19%
other
  melting point: 194 to 195 °C
TOP I (Topoisomerase I)
  inhibitory effect in TOP I activity assay compared with CPT: more potent inhibitory effects than CPT
HCC-2998; HCC-2998, 10^−5 molar
  Growth percent: 108.36%
CAKI-1; CAKI-1, 10^−5 molar
  Growth percent: 84.31%
ACHN; ACHN, 10^−5 molar
  Growth percent: 86.20%
OVCAR-4; OVCAR-4, 10^−5 molar
  Growth percent: 94.63%
MDA-MB-486; MDA-MB-486, 10^−5 molar
  Growth percent: 43.26%
MOLT-4; MOLT-4, 10^−5 molar
  Growth percent: 70.71%
SF-268; SF-268, 10^−5 molar
  Growth percent: 87.67%
UACC-257; UACC-257, 10^−5 molar
  Growth percent: 107.40%
786-0; 786-0, 10^−5 molar
  Growth percent: 93.30%
UACC-62; UACC-62, 10^−5 molar
  Growth percent: 102.63%
MDA-MB-435; MDA-MB-435, 10^−5 molar
  Growth percent: 93.04%
MALME-3M; MALME-3M
  Growth percent: 100.91%
UO-31; UO-31, 10^−5 molar
  Growth percent: 72.62%
SK-MEL-2; SK-Mel-2, 10^−5 molar
  Growth percent: 106.47%
NCI-H23; NCI-H23
  Growth percent: 100.25%
IGROV1; IGROV1, 10^−5 molar
  Growth percent: 87.27%
HOP-92; HOP-92
  Growth percent: 40.76%

## CCNc1nc2ccccc2c2c(=O)c3cc(Cl)ccc3sc12 [Compound N2, 10-Chloro-6-ethylamino-12H-thiochromeno[2,3-c]quinolin-12-one]
SF-539; [1]
  Growth percent SF-539: 60.35%
SF-539; [2]
  GI50: 10.1 µM
  LC50: > 100 µM
SF-539; SF-539, five dose
  TGI: 58.50 µM
A549/ATCC; A549/ATCC, five dose
  TGI: >100 µM
A549/ATCC; [3]
  GI50: 48.1 µM
  LC50: > 100 µM
A549/ATCC; Non-small cell lung cancer, 10^−5 molar, 48 hours, SRB
  Growth percent A549/ATCC: 61.84%
HCC-2998; Colon cancer, 10^−5 molar, 48 hours, SRB
  Growth percent HCC-2998: 98.02%
HCC-2998; HCC-2998, five dose
  TGI: >100 µM
HCC-2998; [4]
  GI50: > 100 µM
  LC50: > 100 µM
CAKI-1; CAKI-1, five dose
  TGI: >100 µM
CAKI-1; Homo sapiens, CAKI-1, five dose
  GI50: 26.4 µM
CAKI-1; Homo sapiens, CAKI-1, five dose, read-out: LC50 (the source's name)
  CC50: > 100 µM
CAKI-1; [5]
  Growth percent CAKI-1: 72.44%
ACHN; ACHN, five dose
  TGI: >100 µM
ACHN; Homo sapiens, ACHN, five dose
  GI50: 8.66 µM
ACHN; Homo sapiens, ACHN, five dose, read-out: LC50 (the source's name)
  CC50: > 100 µM
ACHN; [5]
  Growth percent ACHN: 43.77%
OVCAR-4; Homo sapiens, OVCAR-4, five dose
  GI50: > 100 µM
OVCAR-4; Homo sapiens, OVCAR-4, five dose, read-out: LC50 (the source's name)
  CC50: > 100 µM
OVCAR-4; OVCAR-4, five dose
  TGI: >100 µM
OVCAR-4; [6]
  Growth percent OVCAR-4: 23.19%
MDA-MB-486; 60 cell, MDA-MB-486, five dose
  GI50: 0.04 µM
MDA-MB-486; 60 cell, MDA-MB-486, five dose, read-out: LC50 (the source's name)
  CC50: > 100 µM
MDA-MB-486; Breast cancer, 10^−5 molar, 48 hours, SRB
  Growth percent MDA-MB-486: 26.29%
MDA-MB-486; MDA-MB-486, five dose
  TGI: >100 µM
MOLT-4; Homo sapiens, MOLT-4, five dose
  GI50: > 100 µM
MOLT-4; Homo sapiens, MOLT-4, five dose, read-out: LC50 (the source's name)
  CC50: > 100 µM
MOLT-4; Leukemia, 10^−5 molar, 48 hours, SRB
  Growth percent MOLT-4: 92.27%
MOLT-4; MOLT-4, five dose
  TGI: >100 µM
SF-268; [1]
  Growth percent SF-268: 78.23%
SF-268; Homo sapiens, SF-268, five dose
  GI50: 22.1 µM
SF-268; Homo sapiens, SF-268, five dose, read-out: LC50 (the source's name)
  CC50: > 100 µM
SF-268; SF-268, five dose
  TGI: >100 µM
UACC-257; Homo sapiens, UACC-257, five dose
  GI50: > 100 µM
UACC-257; Homo sapiens, UACC-257, five dose, read-out: LC50 (the source's name)
  CC50: > 100 µM
UACC-257; [7]
  Growth percent UACC-257: 75.21%
UACC-257; UACC-257, five dose
  TGI: >100 µM
786-0; 786-0, five dose
  TGI: 33.8 µM
786-0; Homo sapiens, 786-0, five dose
  GI50: 10.5 µM
786-0; Homo sapiens, 786-0, five dose, read-out: LC50 (the source's name)
  CC50: > 100 µM
786-0; [5]
  Growth percent 786-0: 23.87%
UACC-62; Homo sapiens, UACC-62, five dose
  GI50: 22.3 µM
UACC-62; Homo sapiens, UACC-62, five dose, read-out: LC50 (the source's name)
  CC50: > 100 µM
UACC-62; [7]
  Growth percent UACC-62: 69.06%
UACC-62; UACC-62, five dose
  TGI: >100 µM
MDA-MB-435; Homo sapiens, MDA-MB-435, five dose
  GI50: > 100 µM
MDA-MB-435; Homo sapiens, MDA-MB-435, five dose, read-out: LC50 (the source's name)
  CC50: > 100 µM
MDA-MB-435; MDA-MB-435, five dose
  TGI: >100 µM
MDA-MB-435; [7]
  Growth percent MDA-MB-435: 80.67%
OVCAR-3; Homo sapiens, OVCAR-3, five dose
  GI50: 52.4 µM
OVCAR-3; Homo sapiens, OVCAR-3, five dose, read-out: LC50 (the source's name)
  CC50: > 100 µM
OVCAR-3; OVCAR-3, five dose
  TGI: >100 µM
OVCAR-3; [6]
  Growth percent OVCAR-3: 76.51%
MALME-3M; Melanoma, 48 hours, SRB
  Growth percent MALME-3M: 77.31%
UO-31; Homo sapiens, UO-31, five dose
  GI50: 29.4 µM
UO-31; Homo sapiens, UO-31, five dose, read-out: LC50 (the source's name)
  CC50: > 100 µM
UO-31; [5]
  Growth percent UO-31: 32.06%
UO-31; UO-31, five dose
  TGI: >100 µM
SK-MEL-2; [8]
  GI50: 16.3 µM
  LC50: > 100 µM
SK-MEL-2; [7]
  Growth percent SK-MEL-2: 76.15%
SK-MEL-2; SK-Mel-2, five dose
  TGI: 43.2 µM
NCI-H23; [9]
  Growth percent NCI-H23: 86.29%
IGROV1; Homo sapiens, IGROV-1, IGROV1, five dose
  GI50: 11.9 µM
IGROV1; Homo sapiens, IGROV-1, IGROV1, five dose, read-out: LC50 (the source's name)
  CC50: > 100 µM
IGROV1; IGROV1, five dose
  TGI: 54.40 µM
IGROV1; [6]
  Growth percent IGROV1: 59.26%
HOP-92; [9]
  Growth percent HOP-92: −0.07%
